Measured values: patent US8853424B2 (Japan Science and Technology Agency, priority 2008, dated 2014)
Where two headings read alike, the source gives them in different places.

Key:
transglutaminase (TGase) = assay: Measurement of TG (TGase inhibitory activity, monodansyl cadaverine / N,N-dimethylcasein fluorescence, FDSS 3000); assay type: biochemical
In short: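 Compound (1 μL of 10 mM stock) added to 0.1 mL reaction: 100 mM HEPES-NaOH pH 7.5, 1 mM CaCl2, 20 μM monodansyl cadaverine, 0.05 mg/mL N,N-dimethylcasein, 5 μg/mL TGase. Rate of fluorescence change at 340 nm measured; DMSO control set to 100; TG50 is the concentration halving activity.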

[1] = test system: Truncated N-terminal huntington 150 Q-EGFP-Neuron 2a cells; assay: Measurement of x-Fold (polyglutamine aggregation inhibitory activity); assay type: cell-based
Experimental: In the present invention, the polyglutamine aggregation inhibitory activity (x-Fold) can be measured, for example, by the method described in the Example.
The number of the aggregated cells, and the total number of cells were counted by Array Scan V T1 (manufactured by Cellomics, Pittuburg, USA), and the ratio of the aggregated cells to the total number of cells was determined (x-Fold). […]

[2] = test system: SOC (store operated calcium channel); assay: Measurement of SOC IC50 (thapsigargin store depletion, calcium re-addition, CHO cells); assay type: cell-based; conditions: read-out: SOC IC50
Experimental: The SOC (store operated calcium channel)-suppressive action can be measured by the method described in the Example and using, for example, FDSS 3000.
CHO cell culture medium was replaced with a BSS solution which is an extracellular fluidfree of calcium, the compound of the present invention was added 1 min later, and 1 μM thapsigargin was allowed to act thereon 2 min later to deplete intracellular calcium store. […]

[3] = TGase activity with compound (10 mM, 1 μL in 0.1 ml enzyme reaction solution), DMSO control taken as 100
[4] = ratio of aggregated cells to total number of cells, compound 20 μM, 20 hr, almost 1 without compound, smaller = stronger inhibition
[5] = Cricetulus griseus, CHO, CHO cells, 1 μM thapsigargin, 2 mM calcium chloride
[6] = Cricetulus griseus, CHO, Table 1
[7] = TGase inhibitory activity value, Table 1
[8] = polyglutamine aggregation inhibitory activity, Table 1
[9] = CHO cells, 1 μM thapsigargin, 2 mM calcium chloride
[10] = TGase inhibitory activity measurement, unit not given
[11] = polyglutamine aggregation, Truncated N-terminal huntington 150 Q-EGFP-Neuron 2a cells

Row | Compound | TGase activity remaining (% of DMSO control = 100) (transglutaminase (TGase); [3]) | x-Fold [1, 4] | IC50 [2, 5] | IC50 [2, 6] | TGase activity remaining (% of DMSO control = 100) (transglutaminase (TGase); [7]) | x-Fold [1, 8] | IC50 [2, 9] | other results
1 | NC(=O)CC(N)C(=O)OB(c1ccccc1)c1ccccc1 (stereo not drawn) [Example 270, diphenyl(asparaginate-O,N)borane] | 111 | 0.54 | 700 nM | 700 nM |  |  |  | TGase activity remaining (% of DMSO control = 100) (transglutaminase (TGase); TGase inhibitory activity value, Table 1, listed as 855): 111; x-Fold ([1]; polyglutamine aggregation inhibitory activity, Table 1, listed as 855): 0.54
2 | 4,4′(phenyl-2-aminoethoxyboryl)diphenyl [Example 10] | 7 | 0.92 |  |  | 7 | 0.92 | 500 nM | 
3 | c1ccc(B(OCc2ccccn2)c2ccc(Oc3ccc(B(OCc4ccccn4)c4ccccc4)cc3)cc2)cc1 [Example 432, bis(4,4′-(phenyl-2-pyridylmethoxyboryl)phenyl)ether] | 60 | 0.71 |  |  |  |  | 300 nM | TGase activity remaining (% of DMSO control = 100) (transglutaminase (TGase); [10]): 60; x-Fold [1, 11]: 0.71
4 | Cc1ccc(Cl)cc1B(OCCN)c1cc(Cl)ccc1C [Example 244, di(5-chloro-2-methylphenyl) 2-aminoethylborinate] | 74 | 0.76 | 1000 nM |  |  |  |  | 
5 | c1ccc(B(OCC2CCCN2)c2ccc(COCc3ccc(B(OCC4CCCN4)c4ccccc4)cc3)cc2)cc1 (stereo not drawn) [Example 452, bis(4,4′-(phenyl-2-pyrrolidinemethoxyboryl)benzyl)ether] | 29 | 0.96 |  |  |  |  | 500 nM | TGase activity remaining (% of DMSO control = 100) (transglutaminase (TGase); [10]): 29; x-Fold [1, 11]: 0.96
6 | NCCCCC(N)C(=O)OB(c1ccccc1)c1ccc(COCc2ccc(B(OC(=O)C(N)CCCCN)c3ccccc3)cc2)cc1 (stereo not drawn) [Example 409, bis(4,4′-(phenyl-lysineboryl)benzyl)ether] | 29 | 0.86 |  |  |  |  | 1500 nM | TGase activity remaining (% of DMSO control = 100) (transglutaminase (TGase); [10]): 29; x-Fold [1, 11]: 0.86
7 | NCC(OB(c1ccccc1)c1cccc(COCc2cccc(B(OC(CN)c3ccccc3)c3ccccc3)c2)c1)c1ccccc1 (stereo not drawn) [Example 468, bis(3,3′-(phenyl-2-amino-1-phenylethoxyboryl)benzyl)ether] | 35 | 0.98 |  |  |  |  | 300 nM | TGase activity remaining (% of DMSO control = 100) (transglutaminase (TGase); [10]): 35; x-Fold [1, 11]: 0.98
8 | NC(=O)CC(N)C(=O)OB(c1ccccc1)c1cccc(COCc2cccc(B(OC(=O)C(N)CC(N)=O)c3ccccc3)c2)c1 (stereo not drawn) [Example 404, bis(3,3′-(phenyl-asparagineboryl)benzyl)ether] | 105 | 1.07 | 4000 nM |  |  |  |  | TGase activity remaining (% of DMSO control = 100) (transglutaminase (TGase); TGase inhibitory activity measurement, unit not given, listed as 2023): 105; x-Fold ([1]; polyglutamine aggregation, Truncated N-terminal huntington 150 Q-EGFP-Neuron 2a cells, listed as 2023): 1.07; IC50 ([2]; Cricetulus griseus, CHO, CHO cells, thapsigargin store depletion): 4000 nM
9 | Cc1ccc(B(OCC2CCCCN2)c2ccc(C)c(Cl)c2)cc1Cl (stereo not drawn) [Example 247, di(3-chloro-4-methylphenyl) 2-piperidinomethylborinate] | 99 | 0.91 | 700 nM |  |  |  |  | 
10 | NCCNCCOB(c1ccccc1)c1ccc(Oc2ccc(B(OCCNCCN)c3ccccc3)cc2)cc1 [Example 396, bis(4,4′-(phenyl-N-aminoethyl-aminoethoxyboryl)phenyl)ether] | 3 | 0.58 |  |  | 3 | 0.58 | 1200 nM | 
11 | Cc1ccc(B(OCCN2CCCCC2)c2ccc(C)c(Cl)c2)cc1Cl [Example 73, di(3-chloro-4-methylphenyl)piperidinoethoxyborane] | 35 | 0.85 | 1200 nM | 1200 nM | 35 | 0.85 |  | 
12 | NC(=O)CCC(N)C(=O)OB(c1ccc(Oc2ccc(B(OC(=O)C(N)CCC(N)=O)c3cccc4ccccc34)cc2)cc1)c1cccc2ccccc12 (stereo not drawn) [Example 444, bis(4,4′-(naphthylglutamineboryl)phenyl)ether] | 20 | 0.65 |  |  |  |  | 1400 nM | TGase activity remaining (% of DMSO control = 100) (transglutaminase (TGase); [10]): 20; x-Fold [1, 11]: 0.65
13 | Cc1ccc(B(Oc2ccccc2N)c2ccc(C)c(Cl)c2)cc1Cl [Example 220, di(3-chloro-4-methylphenyl) 2-aminophenylborinate] | 26 | 0.50 | 500 nM | 500 nM | 26 | 0.50 |  | 
14 | COc1ccc(B(O)c2ccc(COCc3ccc(B(O)c4ccc(OC)cc4)cc3)cc2)cc1 [Example 410, bis(4,4′-(p-methoxy-phenyl-hydroxyboryl)benzyl)ether] | 130 | 0.90 |  |  |  |  | 2000 nM | 
15 | CNCCOB(c1ccc(COCc2ccc(B(OCCNC)c3ccc(OC)cc3)cc2)cc1)c1ccc(OC)cc1 [Example 413, bis(4,4′-(p-methoxyphenyl-N-methylaminoethoxyboryl)benzyl)ether] | 28 | 0.81 |  |  |  |  | 800 nM | TGase activity remaining (% of DMSO control = 100) (transglutaminase (TGase); [10]): 28; x-Fold [1, 11]: 0.81
16 | CN(C)CCSB(c1ccccc1)c1ccccc1 [Example 294, diphenyl dimethylaminoethylthioborane] | 114 | 0.96 | 2000 nM | 2000 nM | 114 | 0.96 |  | 
17 | OB(c1ccccc1)c1ccc(Oc2ccc(B(O)c3ccccc3)cc2)cc1 [Example 3, bis(4,4′-(phenylhydroxyboryl)phenyl)ether] | −20 | 0.49 |  |  | −20 | 0.49 | 500 nM | 
18 | CNCCOB(c1ccccc1)c1ccc(COc2ccc(B(OCCNC)c3ccccc3)cc2)cc1 [Example 427, (4-phenyl-N-methylaminoethoxyborylphenyl) (4′-phenyl-N-methylaminoethoxyborylbenzyl)ether] | 20 | 0.73 |  |  |  | 1.02 | 800 nM | TGase activity remaining (% of DMSO control = 100) (transglutaminase (TGase); [10]): 20; x-Fold [1, 11]: 0.73
19 | CC(C)(C)c1cc(B(O)c2ccccc2)c2c(c1)C(C)(C)c1cc(C(C)(C)C)cc(B(O)c3ccccc3)c1O2 [Example 377, 4,5-di(phenylhydrixyboryl)-2,7-di-tert-butyl-9,9-dimethylxanthrene] | 70 | 0.75 | > 20000 nM | > 20000 nM | 70 | 0.75 |  | 
20 | NC(=O)CCC(N)C(=O)OB(c1ccccc1)c1ccccc1 (stereo not drawn) [Example 269, diphenyl(glutaminate-O,N)borane] | 95 | 1.01 | 3000 nM | 3000 nM |  |  |  | TGase activity remaining (% of DMSO control = 100) (transglutaminase (TGase); TGase inhibitory activity value, Table 1, listed as 879): 95; x-Fold ([1]; polyglutamine aggregation inhibitory activity, Table 1, listed as 879): 1.01
21 | NCCCC(N)C(=O)OB(c1ccccc1)c1ccccc1 (stereo not drawn) [Example 308, diphenyl(ornithinate-O,N)borane] | 27 | 1.05 | 500 nM | 500 nM |  |  |  | TGase activity remaining (% of DMSO control = 100) (transglutaminase (TGase); TGase inhibitory activity value, Table 1, listed as 7020): 27; x-Fold ([1]; polyglutamine aggregation inhibitory activity, Table 1, listed as 7020): 1.05
22 | CC(C)(C)B(O)c1ccccc1 [Example 109, tertiary-butyl phenyl borinic acid] | 108 | 1.02 | > 10000 nM | > 10000 nM | 108 | 1.02 |  | 
23 | Cc1ccc(B(Sc2ccccc2N)c2ccc(C)c(Cl)c2)cc1Cl [Example 283, di(3-chloro-4-methylphenyl) 2-aminophenylthioborane] | 12 | 0.83 | 900 nM | 900 nM | 12 | 0.83 |  | 
24 | NC(CS)C(=O)OB(c1ccccc1)c1ccccc1 (stereo not drawn) [Example 266, diphenyl(cysteinate-O,N)borane] | 84 | 0.87 | 3000 nM | 3000 nM | 84 | 0.87 |  | 
